Reference: patent US20260000781A1, “FC CONJUGATES INCLUDING AN INHIBITOR OF CD73 AND USES THEREOF” (Cidara Therapeutics, Inc., priority 2022, published 2026)
Where two headings read alike, the source gives them in different places.

Molecular target: T1, CD73 on 4T1 mouse cells (Mus musculus, UniProt Q61503)
T1 construct: host or cells: 4T1
T1 sequence (Q61503 29-551): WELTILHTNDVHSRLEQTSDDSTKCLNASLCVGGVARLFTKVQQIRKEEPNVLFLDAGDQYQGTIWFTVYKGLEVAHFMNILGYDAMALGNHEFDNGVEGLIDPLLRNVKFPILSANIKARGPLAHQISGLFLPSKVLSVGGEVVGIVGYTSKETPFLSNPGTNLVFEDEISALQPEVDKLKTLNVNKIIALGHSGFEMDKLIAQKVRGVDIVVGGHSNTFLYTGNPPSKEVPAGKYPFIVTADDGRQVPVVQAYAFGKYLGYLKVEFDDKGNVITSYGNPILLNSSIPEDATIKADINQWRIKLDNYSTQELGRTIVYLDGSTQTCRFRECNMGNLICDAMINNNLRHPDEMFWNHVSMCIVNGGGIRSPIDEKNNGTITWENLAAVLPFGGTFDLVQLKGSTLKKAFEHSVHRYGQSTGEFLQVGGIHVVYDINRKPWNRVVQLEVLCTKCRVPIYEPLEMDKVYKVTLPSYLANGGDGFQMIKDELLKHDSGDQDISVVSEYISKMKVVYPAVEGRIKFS
Assay: CD73 enzyme inhibition assay with mouse 4T1 cells (PiColorLock)
Type: cell-based
Conditions: 4T1 cancer cells, AMP 100 μM
Protocol: The cell-based CD73 enzyme inhibition assay was performed in a 96-well plate format using the PiColorLock phosphate assay kit in accordance with the manufacturer's instructions (Abcam cat no. 270004). 4T1 mouse cells are a model for stage IV human breast cancer (ATCC CRL-2539) and human peripheral blood mononuclear cells (PBMCs; StemCell Technologies cat no. 70025) from three different donors were assayed. 4T1 cells were washed three times with a phosphate-free CD73 buffer (Lawson et al., 2020), detached from tissue-culture flasks using a cell scraper, and seeded at 5×10^3 cells/well into 96-well tissue culture-treated plates. Human PBMCs were washed three times with phosphate-free CD73 buffer at 125×g for 10 min at room temperature and seeded at 1×10^5 cells/well into 96-well tissue culture-treated plates. Test articles were tested from 0.001 nM to 1,000 nM (4T1 cells) or 0.0001 nM to 100 nM (PBMCs) and incubated with cells for 30 min at 37° C., 5% CO2. AMP (100 μM final concentration) was added to cells and test articles, and the reaction incubated for 3 h and 24 h at 37° C., 5% CO2. The conversion of AMP to adenosine and phosphate in cell-free supernatant was quantified using the PiColorLock kit. Colorimetric detection reagent was added and the phosphate production was measured by reading the absorbance at 635 nm with the EnSpire multimode plate reader (PerkinElmer). Cells without test article (positive control) were included on each plate. Control wells without test article and cells (background) were subtracted from all wells. Percent CD73 inhibition versus inhibitor concentration was plotted using GraphPad Prism Version 8 and IC50's calculated using nonlinear regression analysis (Sigmoidal, 4 PL).

Row | IC50 (24 h, read-out: 24 h IC50) [nM] | IC50 (3 h IC50 [nM], 3 h) [nM] | IC50 (read-out: 3 h IC50, 3 h) [nM] | Structure (SMILES)
1 | 85.7 | 6.79 | – | C[C@H](Nc1cc(Cl)nc2c1cnn2[C@@H]1O[C@H](COP(=O)(O)CP(=O)(O)O)[C@@H](O)[C@H]1O)c1ccccc1F [AB680]
2 | 24 | – | 1.67 | COC[C@](CO)(OC[C@H]1O[C@@H](n2ncc3c(NC4CCCC4)nc(Cl)nc32)[C@H](O)[C@@H]1O)P(=O)(O)O [OP-5244]
3 | 114 | – | 8.2 | O=P(O)(O)COC[C@H]1O[C@@H](n2ncc3c(N4CC5(CCc6ccccc65)C4)nc(Cl)nc32)[C@H](O)[C@@H]1O [SHR170008]
